Among the test systems are MDA-MB-435; NCI-H226 lung; EKVX NSCLC; CAKI-1 renal; MDA-N; RXF 393 renal; OVCAR-3 ovarian; LOX IMVI melanoma; SK-MEL-5 melanoma; M14 melanoma; BT-549 breast; HT29 colon.
What all share (assay): NCI tumour cell line growth inhibition, 48 h

Structures are written as SMILES.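 Tested at 5 concentrations; 48 h exposure; 96-well plates; endpoints linearly interpolated, else capped at highest concentration. TGI: concentration producing complete growth inhibition.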

For the compound `FC1(F)[Se]C2C3CCC(C3)C2C1(F)F` (centres undefined), the TGI in the assay with MDA-MB-435, in the assay on NCI-H226 lung, in the assay on EKVX NSCLC, in the assay on CAKI-1 renal, in the assay with MDA-N and with RXF 393 renal was more than 100 µM throughout. The TGI with OVCAR-3 ovarian, with LOX IMVI melanoma, in the assay on SK-MEL-5 melanoma and with M14 melanoma was more than 100 µM in each case.
Regarding `C=CC(=O)Nc1ccc(NC(=O)C=C)c2c1C(=O)c1ccccc1C2=O`, the TGI in the assay with BT-549 breast was more than 100 µM; in the assay on EKVX NSCLC, more than 100 µM; in the assay on MDA-N it was more than 100 µM; in the assay on HT29 colon, more than 100 µM; in the assay on OVCAR-3 ovarian it was more than 100 µM; in the assay with LOX IMVI melanoma it was 47.4 µM. The TGI in the assay with SK-MEL-5 melanoma and in the assay with M14 melanoma was more than 100 µM each time.
On to `CC(=O)OCCn1cnc2c(NCC=C(C)C)ncnc21`, for which the TGI in the assay with MDA-MB-435, in the assay on NCI-H226 lung, with EKVX NSCLC, with CAKI-1 renal, in the assay with MDA-N and in the assay on RXF 393 renal was more than 100 µM in each case. Also, the TGI in the assay on HT29 colon, in the assay on OVCAR-3 ovarian, with LOX IMVI melanoma, in the assay on SK-MEL-5 melanoma and with M14 melanoma was more than 100 µM each time.
In the case of `CC(=O)Nc1ccc2c3c(cc(O)c2c1)N(C(=O)CCCC(=O)N1CC(CCl)c2c1cc(O)c1cc(NC(C)=O)ccc21)CC3CCl` (centres undefined), the TGI is 0.019 µM in the assay with MDA-MB-435; 0.306 µM with BT-549 breast; 0.0925 µM in the assay on EKVX NSCLC; 0.183 µM in the assay on CAKI-1 renal; less than 0.01 µM in the assay on RXF 393 renal; 0.0262 µM in the assay on OVCAR-3 ovarian. For the same compound, the TGI in the assay on LOX IMVI melanoma was more than 100 µM; with M14 melanoma it was 0.0175 µM.
For the compound `COc1ccccc1Nc1nc2c([nH]1)c(=O)n(C)c(=O)n2C`, the TGI with MDA-MB-435, in the assay with EKVX NSCLC, in the assay on CAKI-1 renal, in the assay on MDA-N, in the assay with RXF 393 renal and in the assay with HT29 colon was more than 10 µM each time. Moreover, the TGI with LOX IMVI melanoma, in the assay on SK-MEL-5 melanoma and with M14 melanoma was more than 10 µM each time.
Regarding `O=C1/C(=C\c2ccc(Cl)cc2)N=C(c2ccccc2)N1n1c(=O)cn[nH]c1=S`, the TGI in the assay on MDA-MB-435 was 87 µM; in the assay with BT-549 breast it was 92.3 µM; in the assay on EKVX NSCLC, more than 100 µM; in the assay with CAKI-1 renal it was more than 100 µM; in the assay with MDA-N, more than 100 µM; in the assay with HT29 colon it was more than 100 µM. In addition, the TGI was 76.2 µM in the assay with OVCAR-3 ovarian, 65.3 µM in the assay with LOX IMVI melanoma, 55.3 µM in the assay with SK-MEL-5 melanoma and more than 100 µM with M14 melanoma.
On to `COc1cc2c(cc1OC)OC(c1c(OC)ccc(OC)c1O)CC2` (centres undefined), for which the TGI in the assay with MDA-MB-435, with NCI-H226 lung, in the assay with BT-549 breast, in the assay on EKVX NSCLC, in the assay with CAKI-1 renal and in the assay on RXF 393 renal was more than 100 µM each time. Moreover, the TGI in the assay with HT29 colon, in the assay with OVCAR-3 ovarian, in the assay on LOX IMVI melanoma, in the assay with SK-MEL-5 melanoma and in the assay on M14 melanoma was more than 100 µM each time.
In the case of `CC(C)CC(NC(=O)C(C)(CI)Cc1ccccc1)C(=O)Nc1ccccc1` (centres undefined), the TGI with MDA-MB-435, in the assay on NCI-H226 lung, in the assay on EKVX NSCLC, in the assay with CAKI-1 renal, in the assay on MDA-N and in the assay on RXF 393 renal was more than 100 µM throughout. In addition, the TGI in the assay with OVCAR-3 ovarian, in the assay on LOX IMVI melanoma, in the assay with SK-MEL-5 melanoma and in the assay with M14 melanoma was more than 100 µM throughout.
Turning to `CCOC(=O)Cc1csc(NC(NC(=O)OCC)(C(=O)OCC)C(F)(F)F)n1` (centres undefined), the TGI in the assay with MDA-MB-435, in the assay on NCI-H226 lung, in the assay on EKVX NSCLC, in the assay with CAKI-1 renal, in the assay on MDA-N and in the assay with RXF 393 renal was more than 100 µM in each case. Further, the TGI with HT29 colon, in the assay on OVCAR-3 ovarian, in the assay on LOX IMVI melanoma, in the assay with SK-MEL-5 melanoma and with M14 melanoma was more than 100 µM each time.
Turning to `Cc1ccc(CC2(C(=O)O)Cc3ccc(C)cc3C2)cc1` (centres undefined), the TGI in the assay on MDA-MB-435, in the assay on NCI-H226 lung, in the assay on BT-549 breast, with EKVX NSCLC, with CAKI-1 renal and with MDA-N was more than 100 µM each time. Also, the TGI in the assay with HT29 colon, in the assay on OVCAR-3 ovarian, in the assay with LOX IMVI melanoma, in the assay on SK-MEL-5 melanoma and in the assay on M14 melanoma was more than 100 µM each time.
Consider `c1csc(-c2nn3c(C45CC6CC(CC(C6)C4)C5)nnc3s2)c1`, for which the TGI in the assay on MDA-MB-435, in the assay on NCI-H226 lung, with EKVX NSCLC, with CAKI-1 renal, with MDA-N and with RXF 393 renal was more than 100 µM in each case. Also, the TGI in the assay with HT29 colon, in the assay with OVCAR-3 ovarian, in the assay on LOX IMVI melanoma, in the assay with SK-MEL-5 melanoma and in the assay on M14 melanoma was more than 100 µM each time.
With `N#Cc1ccc(C(O)C(F)(F)c2nc3ccccc3o2)cc1` (centres undefined), the TGI in the assay with MDA-MB-435, in the assay on NCI-H226 lung, with BT-549 breast, in the assay on EKVX NSCLC, with CAKI-1 renal and in the assay with RXF 393 renal was more than 100 µM each time. Moreover, the TGI in the assay with HT29 colon, with LOX IMVI melanoma, in the assay on SK-MEL-5 melanoma and in the assay with M14 melanoma was more than 100 µM in each case.
Turning to `CCOCCOCCOCc1nc(C#N)c(N)o1`, the TGI in the assay on MDA-MB-435, with NCI-H226 lung, with BT-549 breast, in the assay on EKVX NSCLC, in the assay with CAKI-1 renal and with RXF 393 renal was more than 100 µM each time. Moreover, the TGI in the assay on HT29 colon, in the assay on OVCAR-3 ovarian, with LOX IMVI melanoma, with SK-MEL-5 melanoma and with M14 melanoma was more than 100 µM throughout.
Regarding `O=c1oc2ccc3ccccc3c2cc1-c1nnc(Nc2ccccc2)s1`, the TGI is more than 100 µM in the assay with MDA-MB-435; more than 100 µM in the assay with BT-549 breast; more than 100 µM in the assay on EKVX NSCLC; more than 100 µM with CAKI-1 renal; 29.7 µM in the assay with RXF 393 renal; more than 100 µM with HT29 colon. The results for the TGI in the assay with OVCAR-3 ovarian and with M14 melanoma were 31.4 µM and more than 100 µM, respectively.

For the origin of these results see PubChem BioAssay (NCI).
